Reference: US12115224B2, “Polypeptide conjugates for intracellular delivery of stapled peptides” (Ohio State Innovation Foundation, priority 2017, dated 2024)
Numbered stars: 1 amine (or outer) side, 2 acyl side, 3 side chain; on linkers, the order of the positions; unused ones are H or OH. Bridge positions count the residues as written; N and C are the ends. Square brackets hold non-standard residues; d marks the D form. Peptide text beside a SMILES is read from it. I, II: the chains in the order shown. * marks the point of attachment. X3 = NC(=O)[C@H](CCCCNC(=O)CON=C(C[*:1])C[*:2])NC(=O)COCCOCCN[*:3]; FITC = O=C1OC2(c3ccc(O)cc3Oc3cc(O)ccc32)c2ccc(NC(=S)*)cc21; 2Nal = N[C@@H](Cc1ccc2ccccc2c1)C(=O)O; NF = 5(6)-carboxynaphthofluorescein; CH2COCH2 = O=C(C[*:1])C[*:2]; hCys = N[C@@H](CCS)C(=O)O; AEEA = NCCOCCOCC(=O)O; βAla = NCCC(=O)O

Legend:
[1] = cited from earlier work
[2] = test system: HCT116 p53+/+; test: MTT viability assay, HCT116 WT p53; assay type: cell-based, human; conditions: 0-12.5 μM, 48 h, 10% FBS
Procedure: (§1) Peptides 4 and 5 were tested for anticancer activity against human colon carcinoma cell lines harboring WT (HCT116 p53+/+) and mutant p53 genes (HCT116 p53−/−) using the MTT viability assay. […] See Vassilev, L. T., et al., Science, 303, 844-848 (2004).
(§2) MTT Assay. HCT116 p53 wild type and HCT116 p53^−/− cells were seeded in 96-well plate with 3×10^3 cells per well, and allowed to grow overnight. Different concentrations of peptides (0-12.5 μM) were added to the cells in McCoy's 5A medium supplemented with 10% FBS and 1% penicillin/streptomycin and incubated at 37° C. for 48 h in the presence of 5% CO2. After that, 10 μL of an MTT stock solution (5 mg/mL) was added into each well and the plate was incubated at 37° C. for 4 h. 100 μL of SDS-HCl solubilizing solution was added and the plate was incubated at 37° C. overnight. The absorbance of the formazan product formed was measured at 570 nm on a Tecan microtiter plate reader.

[3] = test system: HCT116 p53−/−; test: MTT viability assay, HCT116 p53-/-; assay type: cell-based, human; conditions: 0-12.5 μM, 48 h, 10% FBS
Procedure: as §1, §2

[4] = molecular target: MDM2 (Homo sapiens, UniProt Q00987); test: Fluorescence anisotropy (FA)-based competition with FITC-labeled peptide 1 for binding to MDM2; conditions: unlabeled peptides 4 and 5
Text: Expression and Purification of GST-MDM2.

[5] = test system: SJSA-1 cells; test: Annexin V/propidium iodide flow cytometry assay; assay type: cell-based; conditions: 48-hour treatment, 10% FBS
Procedure: The percentage of Annexin V+/PI+ and Annexin V+/PI− SJSA-1 cells after 48-hour treatment of inhibitors in presence of 10% FBS was measured.
The mode of action (MOA) of CPP9-sPDI upon cytosolic delivery of the MDM2 inhibitor was also considered. […] This behavior is similar to Nutlin-3a, which is known to induce p53-dependent apoptosis in certain cancer cell lines. In this study, the percentage of Annexin V+/PI+ and Annexin V+/PI− SJSA-1 cells is determined after 48-hour treatment of inhibitors in presence of 10% FBS.

[6] = test system: HeLa cells; test: Live-cell confocal microscopy of FITC-labeled peptides; assay type: cell-based; conditions: 5 μM FITC-labeled peptide, 2 h, 37° C.
Procedure: HeLa cells were treated with 5 μM FITC-labeled peptide for 2 h at 37° C., washed to remove excess peptide, and subjected to live-cell confocal microscopy. I, DIC; II, GFP channel; and III, overlap of I and II.
Four pairs of the peptides from Table 6 were also labeled with FITC and their entry into HeLa cells were monitored by live-cell confocal microscopy (FIG. 4).
To assess delivery aptitude of each conjugate, peptides 22-25 were labeled with FITC and their entry into HeLa cells was monitored by live-cell confocal microscopy (FIG. 21). HeLa cells were treated with 5 μM FITC-labeled peptide for 2 h at 37° C. and washed to remove excess peptide.

[7] = Anti-proliferation MTT assay, SJSA-1; assay type: cell-based; conditions: 72-hour treatment, 0-20 μM, 10% FBS, read-out: IC50 (cytotoxicity)
Procedure: IC50 values (μM) are provided for each test compound.
In addition, the anti-proliferative effects of CPP9-sPDI (structure 23) were evaluated. FIG. 23 compares the effects of CPP9-sPDI, Nutlin-3a, R9-sPDI, sPDI, CPP9-sPDI(F10A) and Tat-sPDI (0-20 μM) on the viability of SJSA-1 cell line after 72-hour treatment in the presence of 10% FBS as measured by MTT assay.

[8] = Serum stability in 25% human serum; assay type: in vitro ADME; conditions: 37° C., read-out: compound detected at the end of the study
Procedure: FIG. 25 is a graph showing the stability of CPP9-sPDI (structure 23) in 25% human serum at 37° C.
The serum stability of CPP9-sPDI was evaluated by incubating the conjugate in 25% human serum at 37° C. over 24 hours. […] The observed level of serum stability (cargo region) may impact the IC50 values measured for this compound.

[9] = Aqueous solubility (observation)

5(6)-carboxynaphthofluorescein [NF]
pKa [1]: 7.8

COc1ccc(C2=N[C@@H](c3ccc(Cl)cc3)[C@@H](c3ccc(Cl)cc3)N2C(=O)N2CCNC(=O)C2)c(OC(C)C)c1 [Nutlin-3, reference compound]
effect on viability of WT p53 cells [2]: selectively killed the WT p53 cells in a dose-dependent manner

CC(=O)N[C@@H](CC(C)C)C(=O)N[C@H](C(=O)N[C@@H](Cc1ccccc1)C(=O)N[C@H]1CCSCC(=O)CSCC[C@@H](C(=O)N[C@@H](CCC(N)=O)C(=O)N[C@@H](CC(C)C)C(=O)N[C@H](C(=O)N[C@@H](CO)C(=O)NCCOCCOCC(=O)N[C@@H](CCCCNC(=S)Nc2ccc3c(c2)C(=O)OC32c3ccc(O)cc3Oc3cc(O)ccc32)C(N)=O)[C@@H](C)O)NC(=O)[C@H](Cc2c[nH]c3ccccc23)NC(=O)[C@H](Cc2ccc(O)cc2)NC(=O)[C@H](Cc2c[nH]cn2)NC1=O)[C@@H](C)O [Peptide 2] (Ac-LTF[hCys]HYW[hCys]QLTS[AEEA]K(FITC)-NH2; linker 4-8 via CH2COCH2)
effect on viability of WT p53 cells [2]: no significant effect
effect on viability of p53 mutant cells [3]: no significant effect

CC(=O)N[C@@H](CC(C)C)C(=O)N[C@H](C(=O)N[C@@H](Cc1ccccc1)C(=O)N[C@H]1CCSCC(=NOCC(=O)NCCCC[C@H](NC(=O)COCCOCCNC(=O)CC[C@@H]2NC(=O)[C@@H](CCCNC(=N)N)NC(=O)[C@H](CCCNC(=N)N)NC(=O)[C@@H](CCCNC(=N)N)NC(=O)[C@H](CCCNC(=N)N)NC(=O)[C@H](Cc3ccc4ccccc4c3)NC(=O)[C@@H](Cc3ccccc3)NC2=O)C(N)=O)CSCC[C@@H](C(=O)N[C@@H](CCC(N)=O)C(=O)N[C@@H](CC(C)C)C(=O)N[C@H](C(=O)N[C@@H](CO)C(=O)NCCOCCOCC(=O)N[C@@H](CCCCN)C(N)=O)[C@@H](C)O)NC(=O)[C@H](Cc2c[nH]c3ccccc23)NC(=O)[C@H](Cc2ccc(O)cc2)NC(=O)[C@H](Cc2c[nH]cn2)NC1=O)[C@@H](C)O [Peptide 5] (I: Ac-LTF[hCys]HYW[hCys]QLTS[AEEA]K-NH2 / II: cyclo([2Nal]R[dR]R[dR]E[dF]); linker I:4-I:8-II:6 via X3)
IC50 [4]: 0.201 µM

CC(=O)N[C@@H](CC(C)C)C(=O)N[C@H](C(=O)N[C@@H](Cc1ccccc1)C(=O)N[C@H]1CC(=O)NCCCC[C@@H](C(=O)N[C@@H](CCC(N)=O)C(=O)N[C@@H](CC(C)C)C(=O)N[C@H](C(=O)N[C@@H](CO)C(=O)NCCOCCOCC(=O)N[C@@H](CCCCNC(=O)CC[C@@H]2NC(=O)[C@@H](CCCNC(=N)N)NC(=O)[C@H](CCCNC(=N)N)NC(=O)[C@@H](CCCNC(=N)N)NC(=O)[C@H](CCCNC(=N)N)NC(=O)[C@H](Cc3ccc4ccccc4c3)NC(=O)[C@@H](Cc3ccccc3)NC2=O)C(N)=O)[C@@H](C)O)NC(=O)[C@H](Cc2c[nH]c3ccccc23)NC(=O)[C@H](Cc2ccc(O)cc2)NC(=O)[C@H](Cc2c[nH]cn2)NC1=O)[C@@H](C)O [Peptide 23] (I: Ac-LTFDHYWKQLTS[AEEA]K-NH2 / II: cyclo([2Nal]R[dR]R[dR]E[dF]); lactam I:4-I:8; amide I:14-II:6)
mode of anti-proliferative action (Annexin V+/PI+ and Annexin V+/PI− cells) [5]: mediated by apoptotic pathways

CC(=O)N[C@@H](CC(C)C)C(=O)N[C@H](C(=O)N[C@@H](Cc1ccccc1)C(=O)N[C@H]1CC(=O)NCCCC[C@@H](C(=O)N[C@@H](CCC(N)=O)C(=O)N[C@@H](CC(C)C)C(=O)N[C@H](C(=O)N[C@@H](CO)C(=O)NCCOCCOCC(=O)N[C@@H](CCCCNC(=O)CC[C@@H]2NC(=O)[C@@H](CCCNC(=N)N)NC(=O)[C@H](CCCNC(=N)N)NC(=O)[C@@H](CCCNC(=N)N)NC(=O)[C@H](CCCNC(=N)N)NC(=O)[C@H](Cc3ccc4ccccc4c3)NC(=O)[C@@H](Cc3ccccc3)NC2=O)C(N)=O)[C@@H](C)O)NC(=O)[C@H](Cc2c[nH]c3ccccc23)NC(=O)[C@H](Cc2ccc(O)cc2)NC(=O)[C@H](Cc2cnc[nH]2)NC1=O)[C@@H](C)O [Peptide 23] (I: Ac-LTFDHYWKQLTS[AEEA]K-NH2 / II: cyclo([2Nal]R[dR]R[dR]E[dF]); lactam I:4-I:8; amide I:14-II:6)
cellular uptake by confocal microscopy [6]: most effective conjugate for delivering sPDI
IC50 [7]: 3.86 µM
remaining at 24 h [8]: 25%

NF-βA-TYRGAAQCAAQCVREV-NH2 ({NF-βAla}-TYRGAAQCAAQCVREV-NH2; bridge 8-12; not fully specified (bridges)) [Peptide 20]
aqueous solubility [9]: limited solubility
